Reference: US10894792B2, “Pesticidally active heterocyclic derivatives with sulfur containing substituents” (SYNGENTA PARTICIPATIONS AG, priority 2017, dated 2021)

Columns and labels:
Type in all cases: in vivo
Euschistus heros = assay: Activity against Euschistus heros (neotropical brown stink bug); conditions: 120 h, application rate of 200 ppm, sprayed soybean leaf, N-2 nymphs, 5 days after infestation, read-out: effect in at least one of the two categories (mortality or growth inhibition)
Protocol: Soybean leaf on agar in 24-well microtiter plates were sprayed with aqueous test solutions prepared from 10′000 ppm DMSO stock solutions. After drying the leaf were infested with N-2 nymphs. The samples were assessed for mortality and growth inhibition in comparison to untreated samples 5 days after infestation.

Myzus persicae [1] = assay: Activity against Myzus persicae (green peach aphid), sprayed sunflower leaf discs; conditions: foliar, 144 h, application rate of 200 ppm, aphid population of mixed ages, 6 days after infestation
Protocol: Sunflower leaf discs were placed on agar in a 24-well microtiter plate and sprayed with aqueous test solutions prepared from 10′000 ppm DMSO stock solutions. After drying, the leaf discs were infested with an aphid population of mixed ages. The samples were assessed for mortality 6 days after infestation.

Myzus persicae [2] = assay: Activity against Myzus persicae (green peach aphid), roots of pea seedlings in test solution; conditions: 144 h, test rate of 24 ppm, roots of infested pea seedlings in test solution, 6 days
Protocol: Roots of pea seedlings infested with an aphid population of mixed ages were placed directly in the aqueous test solutions prepared from 10′000 DMSO stock solutions. The samples were assessed for mortality 6 days after placing seedlings in test solutions.

Plutella xylostella = assay: Activity against Plutella xylostella (diamond back moth), artificial diet; conditions: 120 h, application rate of 200 ppm, L2 larvae on artificial diet, 5 days after infestation, read-out: effect in at least one of the two categories (mortality or growth inhibition)
Protocol: (§1) 24-well microtiter plates with artificial diet were treated with aqueous test solutions prepared from 10′000 ppm DMSO stock solutions by pipetting. After drying, the plates were infested with L2 larvae (10 to 15 per well). The samples were assessed for mortality and growth inhibition in comparison to untreated samples 5 days after infestation.

Bemisia tabaci = assay: Activity against Bemisia tabaci (cotton white fly); conditions: foliar, 144 h, application rate of 200 ppm, sprayed cotton leaf discs, adult white flies, 6 days after incubation
Protocol: Cotton leaf discs were placed on agar in 24-well microtiter plates and sprayed with aqueous test solutions prepared from 10′000 ppm DMSO stock solutions. After drying the leaf discs were infested with adult white flies. The samples were checked for mortality 6 days after incubation.

Diabrotica Balteata = assay: Activity against Diabrotica balteata (corn root worm); conditions: 96 h, application rate of 200 ppm, sprayed maize sprouts, L2 larvae, 4 days after infestation, read-out: effect in at least one of the two categories (mortality or growth inhibition)
Protocol: as §1, with “Maize sprouts placed onto an agar layer in 24-well” for “24-well”, “plates” for “plates with artificial diet”, “spraying.” for “pipetting.”, “(6” for “(10”, “10” for “15”, “4” for “5”

CCS(=O)(=O)c1cc(C(=O)N=S2(=O)CCOCC2)cnc1-c1nc2cc(C(F)(F)F)ncc2n1C [Compound P2, 5-ethylsulfonyl-6-[3-methyl-6-(trifluoromethyl)imidazo[4,5-c]pyridin-2-yl]-N-(4-oxo-1,4-oxathian-4-ylidene)pyridine-3-carboxamide]
≥ 80%: percent effect (mortality or growth inhibition) at 200 ppm (Euschistus heros) | mortality at 200 ppm (Myzus persicae [1]) | mortality at 24 ppm (Myzus persicae [2])

CCS(=O)(=O)c1cc(C(=O)N=S(=O)(CC)CC)cnc1-c1nc2cc(C(F)(F)F)ncc2n1C [Compound P3]
≥ 80%: percent effect (mortality or growth inhibition) at 200 ppm (Euschistus heros) | mortality at 200 ppm (Myzus persicae [1]) | percent effect (mortality or growth inhibition) at 200 ppm (Plutella xylostella) | mortality at 24 ppm (Myzus persicae [2]) | mortality at 200 ppm (Bemisia tabaci)

CCS(=O)(=O)c1cc(C(=O)N=S(C)C)cnc1-c1nc2cc(C(F)(F)F)ncc2n1C [Compound P5, N-(dimethyl-λ^4-sulfanylidene)-5-ethylsulfonyl-6-[3-methyl-6-(trifluoromethyl)imidazo[4,5-c]pyridin-2-yl]pyridine-3-carboxamide]
≥ 80%: percent effect (mortality or growth inhibition) at 200 ppm (Euschistus heros) | mortality at 200 ppm (Myzus persicae [1]) | mortality at 24 ppm (Myzus persicae [2]) | mortality at 200 ppm (Bemisia tabaci) | percent effect (mortality or growth inhibition) at 200 ppm (Diabrotica Balteata)

CCS(=O)(=O)c1cc(C(=O)N=S(C)(C)=O)cnc1-c1nc2cc(C(F)(F)F)nnc2n1C [Compound P6, N-[dimethyl(oxo)-λ^6-sulfanylidene]-5-ethylsulfonyl-6-[7-methyl-3-(trifluoromethyl)imidazo[4,5-c]pyridazin-6-yl]pyridine-3-carboxamide]
≥ 80%: percent effect (mortality or growth inhibition) at 200 ppm (Euschistus heros) | mortality at 200 ppm (Myzus persicae [1]) | percent effect (mortality or growth inhibition) at 200 ppm (Plutella xylostella) | mortality at 24 ppm (Myzus persicae [2]) | mortality at 200 ppm (Bemisia tabaci) | percent effect (mortality or growth inhibition) at 200 ppm (Diabrotica Balteata)

CCS(=O)(=O)c1cc(C(=O)N=S2(=O)CCC2)cnc1-c1nc2cc(C(F)(F)F)ncc2n1C [Compound P12, 5-ethylsulfonyl-6-[3-methyl-6-(trifluoromethyl)imidazo[4,5-c]pyridin-2-yl]-N-(1-oxothietan-1-ylidene)pyridine-3-carboxamide]
≥ 80%: mortality at 200 ppm (Myzus persicae [1]) | percent effect (mortality or growth inhibition) at 200 ppm (Plutella xylostella) | mortality at 24 ppm (Myzus persicae [2]) | mortality at 200 ppm (Bemisia tabaci)

CCS(=O)(=O)c1cc(C(=O)N=S2(=O)CCOCC2)cnc1-c1nc2cc(C(F)(F)F)cnc2n1C [Compound P17, 5-ethylsulfonyl-6-[3-methyl-6-(trifluoromethyl)imidazo[4,5-b]pyridin-2-yl]-N-(4-oxo-1,4-oxathian-4-ylidene)pyridine-3-carboxamide]
≥ 80%: percent effect (mortality or growth inhibition) at 200 ppm (Euschistus heros) | mortality at 200 ppm (Myzus persicae [1]) | percent effect (mortality or growth inhibition) at 200 ppm (Plutella xylostella) | mortality at 24 ppm (Myzus persicae [2])

CCS(=O)(=O)c1cc(C(=O)N=S(=O)(CC)CC)cnc1-c1nc2cc(C(F)(F)F)nnc2n1C [Compound P18, N-[diethyl(oxo)-λ^6-sulfanylidene]-5-ethylsulfonyl-6-[7-methyl-3-(trifluoromethyl)imidazo[4,5-c]pyridazin-6-yl]pyridine-3-carboxamide]
≥ 80%: percent effect (mortality or growth inhibition) at 200 ppm (Euschistus heros) | mortality at 200 ppm (Myzus persicae [1]) | percent effect (mortality or growth inhibition) at 200 ppm (Plutella xylostella) | mortality at 24 ppm (Myzus persicae [2]) | mortality at 200 ppm (Bemisia tabaci) | percent effect (mortality or growth inhibition) at 200 ppm (Diabrotica Balteata)

CCS(=O)(=O)c1cc(C(=O)N=S(=O)(CC)CC)ccc1-c1nc2cc(C(F)(F)F)cnc2n1C [Compound P23, N-[diethyl(oxo)-λ^6-sulfanylidene]-3-ethylsulfonyl-4-[3-methyl-6-(trifluoromethyl)imidazo[4,5-b]pyridin-2-yl]benzamide]
≥ 80%: percent effect (mortality or growth inhibition) at 200 ppm (Euschistus heros) | mortality at 200 ppm (Myzus persicae [1]) | percent effect (mortality or growth inhibition) at 200 ppm (Plutella xylostella) | mortality at 24 ppm (Myzus persicae [2]) | mortality at 200 ppm (Bemisia tabaci) | percent effect (mortality or growth inhibition) at 200 ppm (Diabrotica Balteata)
